Test results from US5206162A, “Process for making D-aminoacylase” (National Science Council of Republic of China, priority 1991, dated 1993).
Where two headings read alike, the source gives them in different places.

How the values were obtained:
Format in all cases: biochemical
D-aminoacylase [1] = biological target: T1, D-aminoacylase (Alcaligenes faecalis, UniProt Q9AGH8); experiment: Influence of metallic ions on D-aminoacylase activities; conditions: 1 mM metallic ion, 50 mM Tris-HCl pH 7.8, 30 minutes at 37° C., ninhydrin method
T1 sequence (Q9AGH8 1-484): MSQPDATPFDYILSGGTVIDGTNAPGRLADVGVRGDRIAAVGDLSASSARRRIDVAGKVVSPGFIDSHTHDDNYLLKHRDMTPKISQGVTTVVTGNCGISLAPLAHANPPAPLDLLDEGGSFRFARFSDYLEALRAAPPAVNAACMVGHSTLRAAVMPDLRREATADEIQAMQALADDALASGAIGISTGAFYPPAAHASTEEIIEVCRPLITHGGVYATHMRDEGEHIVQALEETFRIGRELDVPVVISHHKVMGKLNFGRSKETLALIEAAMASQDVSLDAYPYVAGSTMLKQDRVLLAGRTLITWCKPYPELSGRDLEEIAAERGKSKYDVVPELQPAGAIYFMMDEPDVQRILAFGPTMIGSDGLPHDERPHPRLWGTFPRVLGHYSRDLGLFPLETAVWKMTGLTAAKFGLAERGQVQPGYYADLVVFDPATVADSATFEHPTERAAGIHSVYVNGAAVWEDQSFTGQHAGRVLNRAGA

D-aminoacylase [2] = biological target: T1, D-aminoacylase; experiment: Reagents (inhibitors) influencing the D-aminoacylase activities
D-aminoacylase [3] = biological target: T1, D-aminoacylase; experiment: Substrate specificity of D-aminoacylase (hydrolysis of N-acyl amino acids, ninhydrin method); conditions: for Relative Activity D-form: D-form of the substrate, N-acetyl-D-methionine = 100; for Relative Activity L-form: L-form of the substrate, relative to N-acetyl-D-methionine = 100
Source text: The activity of D-aminoacylase obtained by the method of this invention may be measured in accordance with Rosen method by using suitable amount of enzyme to decompose N-acetyl-D-methionine, of which the produced D-methionine may be quantitatively measured by D-amino acid oxidase or by ninhydrin method. [Note: H. Rosen, A modified ninhydrin colorimetric analysis for amino acids. Arch. Biochem. Biophys. 67:10-15 (1957)].
The activity unit of enzyme of this invention is defined herewith as the enzyme quantity required for decomposing 10 mM N-acetyl-D-methionine solution for releasing 1μ mole D-methionine per minute at 37° C.
The D-aminoacylase of this invention (hereinafter simply designated as "the acylase") may hydrolyze N-acyl-D-amino acids, but only slightly hydrolyze the N-acyl-L-amino acids.

[4] = 1 mM inhibitor, 50 mM Tris-HCl pH 7.8, 30 minutes at 37° C., ninhydrin method, read-out: Residual activities %

Relative Activity D-form (D-aminoacylase [3])	Relative Activity L-form (D-aminoacylase [3])	SMILES	Residual activities % (D-aminoacylase [1])	other results
–	–	[Ba+2].[Cl-].[Cl-] [BaCl2]	99%	–
–	–	[Ca+2].[Cl-].[Cl-] [CaCl2]	99%	–
–	–	[Cl][Cd][Cl] [CdCl2]	0%	–
–	–	[Cl-].[Cl-].[Co+2] [CoCl2]	96%	–
–	–	[Cl][Cu][Cl] [CuCl2]	15%	–
–	–	O=C(O)CN(CCN(CC(=O)O)CC(=O)O)CC(=O)O [EDTA]	–	Inhibition of the enzyme by reagent (in words) (D-aminoacylase [2]): inhibited; remaining activity at 1000 µM (D-aminoacylase [2]; pH 7.8, read-out: Residual activities %): 22%
–	–	[Cl][Fe][Cl] [FeCl2]	60%	–
–	–	[Cl][Hg][Cl] [HgCl2]	0%	–
–	–	[Cl-].[Cl-].[Mg+2] [MgCl2]	95%	–
–	–	[Cl][Mn][Cl] [MnCl2]	70%	–
–	–	CSCC[C@@H](NC(C)=O)C(=O)O [N-acetyl-D-methionine]	–	Hydrolysis by the acylase (in words) (D-aminoacylase [3]): strongest
14	0.7	CC(=O)N[C@@H](C)C(=O)O [N-acetyl-alanine]	–	–
8	0	CC(=O)N[C@@H](CC(N)=O)C(=O)O [N-acetyl-asparagine]	–	–
40	0.4	CC(=O)NC(CC(C)C)C(=O)O (stereo not shown) [N-acetyl-leuoine]	–	–
100	0.8	CSCC[C@H](NC(C)=O)C(=O)O [N-acetyl-methionine]	–	–
80	0.8	CC(=O)N[C@@H](Cc1ccccc1)C(=O)O [N-acetyl-phenylalanine]	–	–
3	0	CC(=O)NC(C(=O)O)c1ccccc1 (stereo not shown) [N-acetyl-phenylglycine]	–	–
14	0	CC(=O)N[C@@H](Cc1c[nH]c2ccccc12)C(=O)O [N-acetyl-tryptophan]	–	–
6	0	CC(=O)N[C@H](C(=O)O)C(C)C [N-acetyl-valine]	–	–
42	0.6	CC(C)[C@H](NC(=O)CCl)C(=O)O [N-chloroacetyl-valine]	–	–
–	–	CCN1C(=O)C=CC1=O [N-ethylmaleimide]	–	remaining activity at 1000 µM (D-aminoacylase [2]; [4]): 36%; Inhibition of the enzyme by reagent (in words) (D-aminoacylase [2]; 1 mM, 37° C., 30 minutes): inhibited
–	–	[Cl][Ni][Cl] [NiCl2]	89%	–
–	–	[Cl-].[Cl-].[Sr+2] [SrCl2]	87%	–
–	–	[Cl-].[Cl-].[Zn+2] [Zncl2]	0%	–
–	–	NC(=O)CI [iodoacetamide]	–	remaining activity at 1000 µM (D-aminoacylase [2]; [4]): 97%
–	–	O=C(O)c1cc[c]([Hg][Cl])cc1 [p-chloromercuibenzoic acid]	–	Residual activities % (D-aminoacylase [2]; 1 mM inhibitor, 50 mM Tris-HCl pH 7.8, 30 minutes at 37° C., ninhydrin method): 0%; Inhibition of the enzyme by reagent (in words) (D-aminoacylase [2]; 1 mM, 37° C., 30 minutes): inhibited
–	–	O=CC(=O)c1ccccc1 [phenylglyoxal]	–	remaining activity at 1000 µM (D-aminoacylase [2]; [4]): 65%; Inhibition of the enzyme by reagent (in words) (D-aminoacylase [2]; 1 mM, 37° C., 30 minutes): inhibited
